# Assay results taken from PubChem BioAssay (NCI).
#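 Five concentrations, 48 hours, 96-well plates. At the GI50, growth is halved. TGI denotes the concentration required for complete inhibition of growth.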
# Test system: HOP-92 NSCLC
# Test: NCI anticancer screen, dose series, 48 h
Compound,GI50 [µM],TGI [µM]
Nc1ccc(-c2nc3ccc(Cc4ccc5nc(-c6ccc(N)cc6)[nH]c5c4)cc3[nH]2)cc1,16.5,39
Cn1c2ccccc2c(=O)c2ccc(Cl)cc21,,> 10
CC(CO)(CO)NCCCCn1ccc2c1C(=O)c1c(c(O)c3ccccc3c1O)C2=O,5.73,22.7
O=S(=O)(Nc1cc(Sc2cccc3cccnc23)c(O)c2ccccc12)c1ccccc1,2.61,7.38
CN(C)C(=O)[C@H](O)[C@H](Cc1ccccc1)NC(=O)c1cc2cc(Cl)ccc2[nH]1,17,56.8
CC(C)(C[C@H]1CN(S(=O)(=O)c2cccc(C(F)(F)F)c2)c2cc(-c3cc(F)cc(OC(F)F)c3)ccc2O1)C(=O)O,3.1,16.8
Cc1ccc(-c2nc3ccc(Cl)cc3c(=O)n2N2C(=O)CSC2c2ccccc2Cl)cc1 (stereo unspecified),6.74,> 100
O=C(O)C1C(Br)(c2ccccc2)C1(Br)c1ccccc1 (stereo unspecified),,> 100
C#Cc1c(I)n(C2OC(CO[Si](C)(C)C(C)(C)C)C3OC(C)(C)OC32)c(=O)[nH]c1=O (stereo unspecified),12.4,26.1
CCSc1nc(SCC)c2cn[nH]c2n1,34.6,> 100
ClCC[N+]12CC[N+](CCCl)(CC1)C2,,> 100
COc1cc(C(=O)c2cc(C)c3[nH]c4ccc(C)cc4c3c2C)cc(OC)c1OC,< 0.01,5.86
COc1cc(/C=C/c2cc(/C=C/c3ccc(O)c(OC)c3)n(C(=O)Nc3ccc(C)cc3C)n2)ccc1O,0.576,3.71
Cc1ccc2[nH]c(O)c(N=Nc3ccc(S(N)(=O)=O)cc3)c2c1,> 25,> 25
C=C1CCC(CC[C@@H]2CC[C@]3(OC2)O[C@@]2(O)CC[C@]3(C)OC2(C)C)C(C)(C)[C@H]1C/C=C1/C(=O)OC[C@@H]1O (stereo partly specified),,6.51
C[C@]12CC[C@@H]3c4cc(OCC(F)(F)F)c(O)cc4/C(=N/O)C[C@H]3[C@@H]1CC[C@@H]2O,,26.3
Cn1c(=O)c(Cc2ccccc2F)cc2cnc(NC3CCOCC3)nc21,4.91,> 25
COc1cc(/C=C/c2ccc(OC)c(OC)c2)cc(OC)c1,,> 100
CC1(C)[C@@H](OC(N)=O)[C@H]2O[C@H]2[C@]2(C=O)[C@H]3CC[C@]4(C)[C@@H](c5ccc(=O)oc5)[C@@H](Cl)C[C@]4(O)C3=CC[C@@H]12,0.00616,0.0198

Compound,GI50 [µM],TGI [µM]
CCCCON(OC(=O)c1ccc2ccc3cccc4ccc1c2c34)C(C)=O,16.3,44.3
Cc1[nH]c2ccccc2c(=O)c1CC=C(Cl)Cl,15,70.3
C1CCC([PH+](C2CCCCC2)C2CCCCC2[PH+](C2CCCCC2)C2CCCCC2)CC1.O=C(C1[CH-]CCCC1)C1CCCC[N-]1.[Au] (stereo unspecified),0.22,0.89
Clc1ccc(C=Nc2ccc3c(c2)Cc2ccccc2-3)c(Cl)c1,,> 100
CN(C)CCN1C(=O)c2ccc3c4c(ccc(c24)C1=O)C(=O)N(CCN=C=S)C3=O,0.0262,0.174
COc1ccc(/C=C/c2cc(OC)cc(=O)o2)cc1,,> 100
O=C1CSC(c2ccc(Cl)cc2Cl)N1c1ccc(F)cc1 (stereo unspecified),17.6,32.8
COc1cccc(C#Cc2ccccc2C#CCCCCO)c1,2.49,21.7
CC1=C[C@H]2c3c(c(O)c(O)c4oc(-c5ccccc5)cc(=O)c34)[C@H](c3cc(O)c(O)c4oc(-c5ccccc5)cc(=O)c34)[C@H]2C(C)(C)C1,1.36,5.84
COc1cccc2c(=O)c3c(sc12)c(N1CCNCC1)nc1ccccc13,1.24,2.73
COc1c(CCl)cc(-c2cc(=O)c3ccccc3s2)cc1CCl,,1.8
COc1cc2[nH]c(C(=O)c3cc(OC)c(OC)c(OC)c3)c(N)c2cc1C#CC1CC1,0.622,94.5
COc1ccc(/C=C/C(=O)C(CC2CCC2)C(=O)/C=C/c2ccc(OC)c(OC)c2)cc1OC,2.64,7.9
CC(=O)N[C@H]1CSSC[C@@H](C(N)=O)NC(=O)[C@H](C(C)C)NC(=O)[C@H](C)NC(=O)[C@H](Cc2cnc[nH]2)NC1=O,> 100,> 100
CN(CCC#N)c1ccc(/C=C(\C#N)c2ccc(Br)cc2)cc1,2.52,> 100
COc1cc(NC(C)CCCN)c2nccc(C)c2c1 (stereo unspecified),,> 100
CCCCCCCCCCCCCCCCCCOc1ccccc1CC(=O)OCC[N+]1(C)CCCC1,1.22,3.37
CC(=O)C(=CN1CCN(C(=O)c2ccco2)C1=S)C(C)=O,11.7,46

# Test system: MCF7 breast
# Test: NCI anticancer screen, dose series, 48 h
Compound,TGI [µM],GI50 [µM]
Cn1c2ccccc2c(=O)c2ccc(Cl)cc21,> 10,
CC(CO)(CO)NCCCCn1ccc2c1C(=O)c1c(c(O)c3ccccc3c1O)C2=O,53.4,17.1
O=S(=O)(Nc1cc(Sc2cccc3cccnc23)c(O)c2ccccc12)c1ccccc1,2.85,0.52
CN(C)C(=O)[C@H](O)[C@H](Cc1ccccc1)NC(=O)c1cc2cc(Cl)ccc2[nH]1,> 83.3,22.1
CC(C)(C[C@H]1CN(S(=O)(=O)c2cccc(C(F)(F)F)c2)c2cc(-c3cc(F)cc(OC(F)F)c3)ccc2O1)C(=O)O,22.4,3.98
Cc1ccc(-c2nc3ccc(Cl)cc3c(=O)n2N2C(=O)CSC2c2ccccc2Cl)cc1 (stereo unspecified),> 100,26.9
O=C(O)C1C(Br)(c2ccccc2)C1(Br)c1ccccc1 (stereo unspecified),> 100,
C#Cc1c(I)n(C2OC(CO[Si](C)(C)C(C)(C)C)C3OC(C)(C)OC32)c(=O)[nH]c1=O (stereo unspecified),50,16.6
CCSc1nc(SCC)c2cn[nH]c2n1,> 100,26.5
ClCC[N+]12CC[N+](CCCl)(CC1)C2,> 100,
COc1ccc(CCN2COc3c([C@@H](C)CCC=C(C)C)ccc(C)c3C2)cc1OC,11,3.29
COc1cc(C(=O)c2cc(C)c3[nH]c4ccc(C)cc4c3c2C)cc(OC)c1OC,> 100,< 0.01
COc1cc(/C=C/c2cc(/C=C/c3ccc(O)c(OC)c3)n(C(=O)Nc3ccc(C)cc3C)n2)ccc1O,1.37,0.317
Cc1ccc2[nH]c(O)c(N=Nc3ccc(S(N)(=O)=O)cc3)c2c1,> 25,8.4
C=C1CCC(CC[C@@H]2CC[C@]3(OC2)O[C@@]2(O)CC[C@]3(C)OC2(C)C)C(C)(C)[C@H]1C/C=C1/C(=O)OC[C@@H]1O (stereo partly specified),2.94,
C[C@]12CC[C@@H]3c4cc(OCC(F)(F)F)c(O)cc4/C(=N/O)C[C@H]3[C@@H]1CC[C@@H]2O,33.9,
Cn1c(=O)c(Cc2ccccc2F)cc2cnc(NC3CCOCC3)nc21,> 25,> 25
COc1cc(/C=C/c2ccc(OC)c(OC)c2)cc(OC)c1,> 100,
CC1(C)[C@@H](OC(N)=O)[C@H]2O[C@H]2[C@]2(C=O)[C@H]3CC[C@]4(C)[C@@H](c5ccc(=O)oc5)[C@@H](Cl)C[C@]4(O)C3=CC[C@@H]12,0.0281,0.00724
CCCCON(OC(=O)c1ccc2ccc3cccc4ccc1c2c34)C(C)=O,68.9,26.3
Cc1[nH]c2ccccc2c(=O)c1CC=C(Cl)Cl,> 100,58
Clc1ccc(C=Nc2ccc3c(c2)Cc2ccccc2-3)c(Cl)c1,> 100,
